Measured values as given in patent US20240173456A1, “THERAPEUTIC COMPOSITIONS FOR WOUND TREATMENT” (GlycoSurf, Inc., priority 2022, published 2024).

Tests used:
hDFn cells [1] = assay: PrestoBlue assay, metabolic activity; type: cell-based, human; conditions: vs control
Procedure: (§1) PrestoBlue™ and CyQUANT™ Direct Assay. PrestoBlue™ and CyQuant™ (PBCQ) direct confirmation assay (from ThermoFisher®) for cell viability was used to assess the biocompatibility of hDFn cells in DMEM complete media with varying concentrations of rhamnolipids. Passage 5 hDFn cells were seeded at 11,200 cells/mL density into black wall, clear bottom 96-well tissue culture plates. The cells were placed inside the standing incubator at 37° C. and 5% CO2 until reaching 70-90% confluence. […] The plate layout included blank wells containing DMEM complete media and the corresponding rhamnolipid concentrations. Following 24 hours, 100 μL was removed from each well and replaced with 10 μL of the PrestoBlue reagent. The plates were then incubated for 20 minutes at 37° C. and 5% CO2 prior to being placed in the Biotek® Synergy HT fluorescence microplate reader at 590 nm with a gain value of 35. Afterward, 100 μL of the CyQuant reagent composition was added to all wells and incubated for 60 minutes. The plates were read using the same microplate reader at 528 nm with a gain of 70. The relative fluorescence units (RFU) were produced for all wells, correlating with the metabolic output per unit of DNA.
(§2) Statistical Analysis. Statistically significant differences were determined using GraphPad Prism. The results of the cellular migration assay were analyzed with a one-way ANOVA and Tukey post hoc evaluation. The PBCQ assay was analyzed using a one-way ANOVA and Tukey post hoc evaluation. For all experiments, a p-value<0.05 was considered statistically significant in this study.
(§3) The control scaffold, the SEM image of which is shown in FIG. 5A, was not impregnated with rhamnolipids, or had hDFn cells seeded onto it. In particular, the observable porosity is not structurally different in FIG. 5A compared to the other images (FIGS. 5B-5E) depicting impregnated scaffolds without cells. As the percentage of rhamnolipids increased, the porosity of the scaffold remained relatively similar to the control. […] Visually, the hDFn cells appeared to have been able to adhere and colonize onto impregnated scaffolds which could be further explored to better understand the cytocompatibility of rhamnolipids and if their morphology is influenced by the concentration of the surfactant. PrestoBlue™ and CyQUANT™ Direct Assay. The PrestoBlue™ and CyQUANT™ Direct assays were used to determine the cellular compatibility of hDFn cells when in the presence of rhamnolipids. The PrestoBlue™ assay is a resazurin-based solution when upon entering a living cell, the reagent is reduced to resorufin which is red in color and fluorescent. The overall health of the cell can be observed by changes in fluorescence and subsequently absorbance. […] The CyQUANT™ Direct assay is a cell-permeant green nucleic acid stain that is combined with a masking dye reagent. The masking dye stops the staining of non-viable cells or cells with compromised cell membranes, resulting in only the viable cells being stained. The CyQUANT™ Direct assay measures proliferation as well as membrane integrity. The data was evaluated using GraphPad Prism to run a one-way ANOVA.

[2] = tested on: Human dermal neonatal fibroblasts (hDFn); assay: Rhamnolipid vs. thioglycolipid comparative scratch assay; type: cell-based; conditions: 6.25-50 μM, over 24 hours, particularly at the 4-hour and 8-hour time marks, FIGS. 9, 10A-10B
Procedure: Rhamnolipid vs. Thioglycolipid Comparative Scratch Assays. Human dermal neonatal fibroblasts (hDFn) were seeded in 3×12-well plates at 10,000 cell/cm^2. Media (Dulbecco's Modified Eagle Medium (DMEM)) was changed every 48 hours. Plates were imaged every 4 hours for 24 hours. Plates were analyzed via MATLAB® and RStudio®.

[3] = tested on: neonatal human dermal fibroblast (hDFn) cells; assay: Cellular migration assay (scratch, mock wound), with or without uranyl nitrate (depleted uranium) exposure; type: cell-based
Procedure: Preparation of Depleted Uranium Solution. Approximately 0.005 g of uranyl nitrate (UN) crystals, purchased from American Scientific were weighed and solubilized in 40 mL of Dulbecco's modified eagle medium (DMEM) containing 10% fetal bovine serum (FBS) (DMEM complete) from Gibco® to create an initial working stock solution. Uranyl nitrate stock underwent 60 seconds of pipette mixing to confirm proper disintegration prior to vacuum sterilization using a 0.22 μm filter. Molecular weight was used to calculate the appropriate starting molarity before utilizing weight-volume concentrations to obtain the following experimental dilutions: 0.1 μM, 0.2 μM, 1.0 μM, 2.0 μM, 10 μM, 20 μM made from the sterile-filtered stock solution.
Cell Culture of Neonatal Human Dermal Fibroblasts (hDFn). Passage one neonatal human dermal fibroblast (hDFn) cells were purchased from Cell Applications, Inc. (P1, lot #1734). The hDFn cells were incubated at 37° C., 5% CO2, and passaged using a T-75 tissue culture flask from Corning, completing media changes every 48 hours until 90% confluency was met. Cells were subcultured at a density of 10×10^5 cells/mL, frozen in DMEM containing 10% DMSO, and stored at −80° C. for 24 hours before being placed in liquid nitrogen vapor phase for long-term preservation. The subsequent process was repeated until passage 4 isolates were frozen down.
Rhamnolipid Solution. About 0.0125 g of rhamnolipids (Rha-C10-C10) from Glycosurf were weighed and diluted in 50 mL of 1× phosphate-buffered saline (PBS) to obtain a 200 μM rhamnolipid stock solution. The solution was heated prior to being vortexed for maximum dissolution and sterilized through a vacuum using a 0.22 μm filter. The molarity of rhamnolipid stock solution was found using actual mass ([…]) and molecular weight to calculate experiment dilutions of 6.25 μM, 50 μM, and 100 μM.
Cellular Migration Assay. Human neonatal dermal fibroblasts (hDFn) passage 4, were seeded into a T-75 flask at 10×10^5 cells/mL density and grown in a standing incubator at 37° C., 5% CO2. Once 90% confluence was reached, hDFn were subcultured into 12-well plates, and respective UN treatments with or without rhamnolipids were added. After 24 hours, contents were removed, and the monolayer of fibroblasts was scratched vertically using a sterile pipet tip creating the mock wound (FIG. 1). Wells were then washed twice with Hanks' Balanced Salt Solution (HBSS). Respective treatments were added back into wells and cellular migration rates were monitored and imaged over time (0 hours, 12 hours, and 24 hours). Percent closure rates were collected using MATLAB®.
as §2

hDFn cells [4] = assay: CyQUANT Direct assay, DNA content of living cells; type: cell-based, human; conditions: vs control
Procedure: as §1, §2, §3

CCCCCCC[C@H](CC(=O)O)OC(=O)C[C@@H](CCCCCCC)O[C@@H]1O[C@@H](C)[C@H](O)[C@@H](O)[C@H]1O [rhamnolipids, Rha-C10-C10]
metabolic activity (RFU) (hDFn cells [1]; 6.25 μM rhamnolipids, 24 hours, n=6 (FIG. 7A), Tukey's p<0.001): statistically significant increase | metabolic activity (RFU) (hDFn cells [1]; 6.25 μM rhamnolipids, n=12 (FIG. 8A), Tukey's p<0.001): statistically significant increase | metabolic activity (RFU) (hDFn cells [1]; 50 μM rhamnolipids, 24 hours, n=6 (FIG. 7A), Tukey's p<0.001): statistically significant increase | metabolic activity (RFU) (hDFn cells [1]; 50 μM rhamnolipids, n=12 (FIG. 8A), Tukey's p<0.001): statistically significant increase | metabolic activity (RFU) (hDFn cells [1]; maximum concentration of rhamnolipids (100 μM), n=12 (FIG. 8A)): statistically significant decrease | wound healing (percent closure) compared with thioglycolipid compositions [2]: faster healing | mean percent closure ([3]; 24 hours post-wound, across the different treatments (considered closed)): no statistically significant difference | cellular migration (percent closure) ([3]; absence of UN, high dose of rhamnolipids (50 μM), 12 hours post-wound, vs control, Tukey's p=0.001): statistically significant increase | mean percent closure ([3]; absence of UN, low concentration of rhamnolipids (6.25 μM), vs control): no statistically significant difference | percent closure (migration rate) ([3]; hDFn exposed to 0.1 μM UN + 50 μM rhamnolipids, 12 hours post-wound, vs control, p-value=0.021): statistically significant increase | percent closure (migration rate) ([3]; hDFn exposed to 1.0 μM UN + 6.25 μM rhamnolipids, 12 hours post-wound, p-value=0.012): statistically significant increase | percent closure (migration rate) ([3]; hDFn exposed to 1.0 μM UN + 50 μM rhamnolipids, 12 hours post-wound, vs control, p-value<0.001): statistically significant increase | percent closure (migration rate) ([3]; hDFn exposed to 10 μM UN + 50 μM rhamnolipids, 12 hours post-wound, vs control, p-value=0.009): statistically significant increase | cellular DNA content (RFU) (hDFn cells [4]; 100 μM rhamnolipids, n=12 (FIG. 8B)): statistically significant decrease | living DNA content (RFU) (hDFn cells [4]; high concentration of rhamnolipids (50 μM), 24 hours, n=6 (FIG. 7B)): no statistically significant difference | living DNA content (RFU) (hDFn cells [4]; high concentration of rhamnolipids (50 μM), n=12 (FIG. 8B)): no statistically significant difference | cellular DNA content (RFU) (hDFn cells [4]; low concentration of rhamnolipids (6.25 μM), 24 hours, n=6 (FIG. 7B), Tukey's p<0.001): statistically significant increase | living DNA content (RFU) (hDFn cells [4]; low concentration of rhamnolipids (6.25 μM), n=12 (FIG. 8B)): no statistically significant difference
